Test results published in ChEMBL document CHEMBL1159363, “New cytotoxic alkaloids from the wood of Vepris punctata from the Madagascar rainforest” (J Nat Prod, 2003).
In brackets after ≈: the same amount, converted by molar mass.

System: A2780
Assay: Cytotoxicity against human A2780 cells
Type: functional, cell-based

Row | SMILES | IC50
1 | COc1c(OC)c(OC)c2c(OC)c3ccoc3nc2c1OC | 3.4 µg/mL (≈ 10.6 µM)
2 | COc1c2c(cc3nc4occc4c(OC)c13)OCO2 | 2.8 µg/mL (≈ 10.2 µM)
3 | COc1c2ccoc2nc2c(OC)c3c(cc12)OCO3 [FLINDERSIAMINE] | 3.3 µg/mL (≈ 12.1 µM)
4 | COc1cc2nc3occc3c(OC)c2cc1OC [KOKUSAGININE] | 3.5 µg/mL (≈ 13.5 µM)
5 | COc1c2c(c(OC)c3c(OC)c4ccoc4nc13)OCO2 | 3.5 µg/mL (≈ 11.5 µM)
6 | COc1ccc2c(OC)c3ccoc3nc2c1OC [SKIMMIANINE] | 4.2 µg/mL (≈ 16.2 µM)
7 | COc1c2cc3c(cc2nc2occc12)OCO3 [MACULINE] | 4 µg/mL (≈ 16.4 µM)
